Test results as given in the supplement of paper PMC10307832.

How the values were obtained:
Assay in all cases: relative viability (nuclei count vs DMSO), 5 days (fraction); higher = more cells survive
Crenolanib + Decitabine = compound: CC1(COc2ccc3c(c2)ncn3-c2ccc3cccc(N4CCC(N)CC4)c3n2)COC1 [Crenolanib] + Nc1ncn([C@H]2C[C@H](O)[C@@H](CO)O2)c(=O)n1 [Decitabine] (partner 2 µM)
How it was run: (§1)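 Lung cancer cell lines were seeded in 1536-well plates and dosed by pin tool the next day, with either a single drug or a fixed anchor-drug dose combined with five library-drug doses (not always all listed) spaced in √10 steps. Five days later, one step fixed the cells and stained their nuclei (final 0.05% Triton X-100, 1% formaldehyde, 1 ug/ml Hoechst), and nuclei were counted on 4× images. Relative viability is the nuclei count in treated wells divided by the count in vehicle wells, and each value is the median of duplicate plates.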

Crenolanib + Vorinostat = compound: CC1(COc2ccc3c(c2)ncn3-c2ccc3cccc(N4CCC(N)CC4)c3n2)COC1 [Crenolanib] + O=C(CCCCCCC(=O)Nc1ccccc1)NO [Vorinostat] (partner 1 µM)
How it was run: as §1

Tivantinib + Lapatinib = compound: O=C1NC(=O)[C@@H](c2cn3c4c(cccc24)CCC3)[C@@H]1c1c[nH]c2ccccc12 [Tivantinib] + CS(=O)(=O)CCNCc1ccc(-c2ccc3ncnc(Nc4ccc(OCc5cccc(F)c5)c(Cl)c4)c3c2)o1 [Lapatinib] (partner 2 µM)
How it was run: as §1

Tivantinib + Alpelisib = compound: O=C1NC(=O)[C@@H](c2cn3c4c(cccc24)CCC3)[C@@H]1c1c[nH]c2ccccc12 [Tivantinib] + Cc1nc(NC(=O)N2CCC[C@H]2C(N)=O)sc1-c1ccnc(C(C)(C)C(F)(F)F)c1 [Alpelisib] (partner 2 µM)
How it was run: as §1

Cell Line | relative viability (Crenolanib + Decitabine; first compound 0.01 µM) | relative viability (Crenolanib + Decitabine; first compound 0.03162 µM) | relative viability (Crenolanib + Decitabine; first compound 0.1 µM) | relative viability (Crenolanib + Decitabine; first compound 0.3162 µM) | relative viability (Crenolanib + Decitabine; first compound 1 µM) | relative viability (Crenolanib + Vorinostat; first compound 0.01 µM) | relative viability (Crenolanib + Vorinostat; first compound 0.03162 µM) | relative viability (Crenolanib + Vorinostat; first compound 0.1 µM) | relative viability (Crenolanib + Vorinostat; first compound 0.3162 µM) | relative viability (Crenolanib + Vorinostat; first compound 1 µM) | relative viability (Tivantinib + Lapatinib; first compound 0.01 µM) | relative viability (Tivantinib + Lapatinib; first compound 0.03162 µM) | relative viability (Tivantinib + Lapatinib; first compound 0.1 µM) | relative viability (Tivantinib + Lapatinib; first compound 0.3162 µM) | relative viability (Tivantinib + Alpelisib; first compound 0.01 µM) | relative viability (Tivantinib + Alpelisib; first compound 0.03162 µM) | relative viability (Tivantinib + Alpelisib; first compound 0.1 µM) | relative viability (Tivantinib + Alpelisib; first compound 0.3162 µM)
NCI-H2087 | 0.267 | 0.341 | 0.427 | 0.303 | 0.335 | 0.657 | 0.779 | 0.968 | 0.664 | 0.877 | 1.1 | 1.16 | 0.862 | 1.13 | 1 | 1.06 | 1.02 | 0.956
NCI-H2126 | 0.544 | 0.564 | 0.61 | 0.659 | 0.586 | 0.8 | 0.836 | 0.691 | 0.815 | 0.684 | 0.799 | 0.737 | 0.77 | 0.799 | 0.745 | 0.739 | 0.749 | 0.684
NCI-H2170 | 0.474 | 0.504 | 0.452 | 0.506 | 0.454 | 0.793 | 0.928 | 0.697 | 0.985 | 0.793 | 0.157 | 0.252 | 0.277 |  | 0.806 | 0.852 | 0.674 | 
NCI-H2347 | 0.657 | 0.611 | 0.605 | 0.674 | 0.6 | 0.629 | 0.807 | 0.383 | 0.707 | 0.645 | 0.891 | 0.923 | 0.956 | 1 | 1.16 | 0.959 | 1.06 | 1.01
NCI-H2405 | 0.775 |  | 0.671 | 0.781 | 0.686 | 1.03 |  | 0.93 | 1.12 | 0.706 | 1.11 | 1.13 | 1.06 | 1.08 | 1.12 | 0.751 | 0.777 | 0.483
NCI-H3122 | 0.433 | 0.424 | 0.468 | 0.546 | 0.478 | 0.976 | 0.938 | 0.765 | 1.14 | 0.796 | 1.08 | 0.94 | 0.973 | 1.01 | 0.731 | 0.849 | 0.803 | 0.807
PC-3 [JPC-3] | 0.785 |  | 0.806 | 0.82 | 0.806 | 0.75 |  | 0.824 | 0.7 | 0.582 | 0.433 | 0.546 | 0.424 | 0.486 | 0.993 | 1.06 | 1.05 | 0.775
PC-14 | 0.167 | 0.195 | 0.212 | 0.21 | 0.226 | 0.95 | 0.678 | 0.704 | 0.875 | 0.633 | 0.307 | 0.35 | 0.3 | 0.325 | 0.874 | 0.927 | 0.945 | 0.892
RERF-LC-KJ | 0.672 | 0.699 | 0.635 | 0.697 | 0.717 | 0.759 | 0.707 | 0.664 | 0.689 | 0.711 | 0.911 | 0.9 | 0.872 | 0.759 | 0.839 | 0.854 | 0.81 | 0.6
SK-LU-1 | 0.666 | 0.703 | 0.533 | 0.66 | 0.653 | 0.735 | 0.863 | 0.603 | 0.811 | 0.795 | 1.06 | 0.856 | 0.835 | 0.855 | 1.04 | 1.17 | 0.995 | 1.16
SK-MES-1 | 0.315 | 0.451 | 0.42 | 0.385 | 0.359 | 1.15 | 1.16 | 0.954 | 1.1 | 1.05 | 0.441 | 0.426 | 0.387 | 0.417 | 0.912 | 0.867 | 0.929 | 0.444
SW 1573 | 0.333 | 0.591 | 0.518 | 0.648 | 0.52 | 0.961 | 0.624 | 0.995 | 0.929 | 0.606 | 1.16 | 0.97 | 0.928 | 1.07 | 0.941 | 0.738 | 0.741 | 0.716
